Patent publication US20140081017A1, “Histone Deacetylase Inhibitors for Enhancing Activity of Antifungal Agents” (METHYLGENE INC., priority 2012, published 2014)
≈ marks a conversion by molar mass, not a printed value. Read-outs that look alike come from different tables or passages of the source.

Experiments:
Candida glabrata = test: Minimal Inhibitory Concentration (MIC) assay, broth microdilution per CLSI; type: cell-based; settings: Nakaseomyces glabratus, read-out: Minimum Inhibitory Concentrations against Yeast Isolates, Candida glabrata;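 note: two read times 24 hr and 48 hr of incubation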
Method in brief: (§1)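 CLSI broth microdilution in RPMI/0.165 M MOPS pH 7.0; 2-fold DMSO dilution series; inoculum 0.5 McFarland diluted 1:100; 35° C, ~24-48 hr; MIC = lowest conc. with no visible growth, read from plate bottom.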

Candida parapsilosis = test: as above; type: cell-based; settings: Lodderomyces parapsilosis, read-out: Minimum Inhibitory Concentrations against Yeast Isolates, Candida parapsilosis;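 note: two read times 24 hr and 48 hr of incubation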
Method in brief: as §1

Candida albicans = test: as above; type: cell-based; settings: Candida albicans, read-out: Minimum Inhibitory Concentrations against Yeast Isolates, Candida albicans;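 note: two read times 24 hr and 48 hr of incubation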
Method in brief: as §1

C. glabrata = test: Checkerboard FIC assay in combination with fluconazole (MIC alone and in combination, FICI); type: cell-based, Candida glabrata; settings: for FICI of combination resulting in fluconazole MIC of: 2 ug/mL / FICI of combination resulting in fluconazole MIC of: 4 ug/mL / FICI of combination resulting in fluconazole MIC of: 8 ug/mL: FICI calculated using a fluconazole MIC of 16 μg/mL; for FICI of combination resulting in fluconazole MIC of: 2 ug/mL (value in parenthesis) / FICI of combination resulting in fluconazole MIC of: 4 ug/mL (value in parenthesis) / FICI of combination resulting in fluconazole MIC of: 8 ug/mL (value in parenthesis): FICI using a fluconazole MIC of 128 μg/mL; for MIC: Nakaseomyces glabratus; for Multiple of compound MIC to synergize fluconazole MIC to 2 ug/mL / Multiple of compound MIC to synergize fluconazole MIC to 4 ug/mL / Multiple of compound MIC to synergize fluconazole MIC to 8 ug/mL: concentration in combination as multiple of the compound's MIC alone; for Multiple of compound MIC to synergize fluconazole MIC to 2 ug/mL: fluconazole MIC 2 ug/mL; for Multiple of compound MIC to synergize fluconazole MIC to 4 ug/mL: fluconazole MIC 4 ug/mL; for Multiple of compound MIC to synergize fluconazole MIC to 8 ug/mL: fluconazole MIC 8 ug/mL; for Concentration of Methylgene compound to synergize fluconazole MIC to 2 ug/mL / Concentration of Methylgene compound to synergize fluconazole MIC to 4 ug/mL / Concentration of Methylgene compound to synergize fluconazole MIC to 8 ug/mL: in combination with fluconazole; for Concentration of Methylgene compound to synergize fluconazole MIC to 2 ug/mL: fluconazole MIC lowered to 2 ug/mL; for Concentration of Methylgene compound to synergize fluconazole MIC to 4 ug/mL: fluconazole MIC lowered to 4 ug/mL; for Concentration of Methylgene compound to synergize fluconazole MIC to 8 ug/mL: fluconazole MIC lowered to 8 ug/mL
Method in brief: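 A fluconazole synergy checkerboard was run against C. glabrata in MOPS-buffered RPMI (pH 7.0) for about 48 h at 35 °C. Each agent was diluted 2-fold, with one row and one column holding each agent alone for MIC determination. FICI was calculated from these MICs, using a 0.5 McFarland inoculum diluted 1:100 per CLSI.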

[1] = 24 hr reading (first value of cell 24 hr/48 hr)
[2] = 48 hr reading (second value of cell 24 hr/48 hr)
[3] = MIC of the example compound alone against C. glabrata in the checkerboard assay, approximately 48 hr, read-out: Methylgene MIC
[4] = test compound alone, C. glabrata, approx. 48 hr at 35° C., read-out: Compound MIC

| Compound | MIC (Candida glabrata; [1]) | MIC (Candida glabrata; [2]) | MIC (Candida parapsilosis; [1]) | MIC (Candida parapsilosis; [2]) | MIC (Candida albicans; [1]) | MIC (Candida albicans; [2]) | FICI of combination resulting in fluconazole MIC of: 2 ug/mL (C. glabrata; C. glabrata) | FICI of combination resulting in fluconazole MIC of: 4 ug/mL (C. glabrata; C. glabrata) | FICI of combination resulting in fluconazole MIC of: 8 ug/mL (C. glabrata; C. glabrata) | FICI of combination resulting in fluconazole MIC of: 2 ug/mL (value in parenthesis) (C. glabrata; C. glabrata) | FICI of combination resulting in fluconazole MIC of: 4 ug/mL (value in parenthesis) (C. glabrata; C. glabrata) | FICI of combination resulting in fluconazole MIC of: 8 ug/mL (value in parenthesis) (C. glabrata; C. glabrata) | MIC (C. glabrata; [3]) | MIC (C. glabrata; [4]) | Multiple of compound MIC to synergize fluconazole MIC to 2 ug/mL (C. glabrata) | Multiple of compound MIC to synergize fluconazole MIC to 4 ug/mL (C. glabrata) | Multiple of compound MIC to synergize fluconazole MIC to 8 ug/mL (C. glabrata) | Concentration of Methylgene compound to synergize fluconazole MIC to 2 ug/mL (C. glabrata; C. glabrata) | Concentration of Methylgene compound to synergize fluconazole MIC to 4 ug/mL (C. glabrata; C. glabrata) | Concentration of Methylgene compound to synergize fluconazole MIC to 8 ug/mL (C. glabrata; C. glabrata) |
| --- | --- | --- | --- | --- | --- | --- | --- | --- | --- | --- | --- | --- | --- | --- | --- | --- | --- | --- | --- | --- |
| O=C(Cc1ccc(CCCCc2ccc(NC(=O)NCCN3CCOCC3)cc2)cc1)NO [Example 47, N-hydroxy-2-(4-(4-(4-(3-(2-morpholinoethyl)ureido)phenyl)butyl)phenyl)acetamide] | 4 µg/mL (≈ 8.8 µM) | 16 µg/mL (≈ 35.2 µM) | > 32 µg/mL | > 32 µg/mL | > 32 µg/mL | > 32 µg/mL | 0.563 | 0.375 | 0.500 | 0.516 | 0.281 | 0.313 | 16 µg/mL | 16 µg/mL | (½x) | (¼x) | (¼x) | 8 µg/mL | 4 µg/mL | 4 µg/mL |
| O=C(Cc1ccc(C(F)CCCc2ccccc2)cc1)NO (stereo not drawn) [Example 61, 2-(4-(1-fluoro-4-phenylbutyl)phenyl)-N-hydroxyacetamide] | 2 µg/mL (≈ 6.64 µM) | 4 µg/mL (≈ 13.3 µM) | 8 µg/mL (≈ 26.5 µM) | 16 µg/mL (≈ 53.1 µM) | 4 µg/mL (≈ 13.3 µM) | 8 µg/mL (≈ 26.5 µM) | 0.313 | 0.375 | 0.375 | 0.266 | 0.281 | 0.188 | 4 µg/mL | 4 µg/mL | (¼x) | (¼x) | (⅛x) | 1 µg/mL | 1 µg/mL | 0.5 µg/mL |
| Nc1ccc(CCCCc2ccc(CC(=O)NO)cc2)cc1 [Example 31, 2-(4-(4-(4-aminophenyl)butyl)phenyl)-N-hydroxyacetamide] | > 8 µg/mL | > 8 µg/mL | > 16 µg/mL | > 16 µg/mL | > 16 µg/mL | > 16 µg/mL | 0.375 | 0.500 | 0.625 | 0.266 | 0.281 | 0.188 | 4 µg/mL | 4 µg/mL | (¼x) | (¼x) | (⅛x) | 1 µg/mL | 1 µg/mL | 0.5 µg/mL |
| O=C(Cc1ccc(C(O)CCCc2ccccc2)cc1)NO (stereo not drawn) [Example 59, N-hydroxy-2-(4-(1-hydroxy-4-phenylbutyl)phenyl)acetamide] | 16 µg/mL (≈ 53.4 µM) | 64 µg/mL (≈ 214 µM) | > 64 µg/mL | > 64 µg/mL | > 64 µg/mL | > 64 µg/mL | 0.313 | 0.375 | 0.375 | 0.266 | 0.281 | 0.188 | > 16 µg/mL | > 16 µg/mL | – | – | – | 8 µg/mL | 8 µg/mL | 4 µg/mL |
| O=C(Cc1ccc(CCCCc2ccc(NS(=O)(=O)CCN3CCOCC3)cc2)cc1)NO [Example 51, N-hydroxy-2-(4-(4-(4-(2-morpholinoethylsulfona-mido)phenyl)butyl)phenyl)acetamide] | 4 µg/mL (≈ 8.41 µM) | 16 µg/mL (≈ 33.6 µM) | > 64 µg/mL | > 64 µg/mL | > 64 µg/mL | > 64 µg/mL | 0.313 | 0.250 | 0.375 | 0.266 | 0.156 | 0.188 | 16 µg/mL | 16 µg/mL | (¼x) | (⅛x) | (⅛x) | 4 µg/mL | 2 µg/mL | 2 µg/mL |
| O=C(Cc1ccc(CCCCc2ccc(C(=O)N3CCN(CCn4ccnc4)CC3)cc2)cc1)NO [Example 21, 2-(4-(4-(4-(4-(2-(1H-imidazol-1-yl)ethyl)piperazine-1-carbonyl)phenyl)butyl)phenyl)-N-hydroxyacetamide] | 16 µg/mL (≈ 32.7 µM) | 32 µg/mL (≈ 65.4 µM) | > 64 µg/mL | > 64 µg/mL | > 64 µg/mL | > 64 µg/mL | 0.313 | 0.250 | 0.375 | 0.266 | 0.156 | 0.188 | 16 µg/mL | 16 µg/mL | (¼x) | (⅛X) | (⅛X) | 4 µg/mL | 2 µg/mL | 2 µg/mL |
